Source: patent US7560262B2, “Polynucleotide sequences encoding alkaline α-galactosidases and methods of using same” (The State of Israel - Ministry of Agriculture & Rural …, priority 2002, dated 2009)
Read-outs that look alike come from different tables or passages of the source.

Key:
[1] = biological target: recombinant Aga-I (alkaline-α-galactosidase I) (Cucumis melo, UniProt A0ABM3L1M0); test: α-galactosidase assay of E. coli extracts: substrate specificity of recombinant Aga-I; format: biochemical; settings: for Activity (calculated specific activity): recombinant Aga-I, substrate 10 mM, pH 8; for activity of recombinant Aga-I with nitrophenyl substrates: recombinant Aga-I extract
Procedure: α-galactosidase assay of E. coli extracts—α-galactosidase activity was assayed as described by Smart and Pharr [Smart and Pharr (1980) Plant Physiol. 66:731-734] and as performed by Gao and Schaffer (1999) Plant Physiol. 119:979-987]. Reaction was initiated by adding 50 μl enzyme aliquot to 200 μl McIlvaine buffer (made by mixing stock solutions of 0.1M citric acid and 0.2M sodium hydrogen phosphate to achieve pH of 5.0 and 7.0 for the assay of acid and alkaline activity, respectively) and 50 μl substrate (final concentration, 5 mM for pNPG and 10 mM for the natural substrates). Optimum pH for galactosidase activity was determined using the following reaction buffers: Mcllvaine buffer, over a pH range of 4 to 7, 100 mM Hepes buffer over a pH range of 7 to 8, or 50 mM Tris buffer over a pH range of 8 to 8.7. […] In addition, substrate concentration dependence of the reaction was measured by varying the substrate concentrations from 0-10 mM. Km and Vmax values were calculated using Lineweaver-Burk plots.

[2] = tested on: alkaline α-galactosidase from Cucurbita pepo leaves; settings: cited from earlier work; for affinity as substrate: Gaudreault and Webb; for inhibition of the enzyme's activity by the reaction product: Gaudreault and Webb 1983
[3] = pH and temperature dependence of α-galactosidase activity of recombinant Aga-I and Aga-II; format: biochemical; settings: for pH of maximal α-galactosidase activity: extracts of transformed E. coli, pNPG, FIG. 4
Procedure: α-galactosidase assay of E. coli extracts—α-galactosidase activity was assayed as described by Smart and Pharr [Smart and Pharr (1980) Plant Physiol. 66:731-734] and as performed by Gao and Schaffer (1999) Plant Physiol. 119:979-987]. Reaction was initiated by adding 50 μl enzyme aliquot to 200 μl McIlvaine buffer (made by mixing stock solutions of 0.1M citric acid and 0.2M sodium hydrogen phosphate to achieve pH of 5.0 and 7.0 for the assay of acid and alkaline activity, respectively) and 50 μl substrate (final concentration, 5 mM for pNPG and 10 mM for the natural substrates). […] Substrates used were the synthetic substrates based on p-nitrophenol (pNP-sugars), including the pNPa-gal (Sigma) and the natural substrates stachyose, raffinose and melibiose. In addition, substrate concentration dependence of the reaction was measured by varying the substrate concentrations from 0-10 mM. Km and Vmax values were calculated using Lineweaver-Burk plots.

[4] = substrate: OC[C@H]1O[C@H](OC[C@H]2O[C@H](OC[C@H]3O[C@H](O[C@]4(CO)O[C@H](CO)[C@@H](O)[C@@H]4O)[C@H](O)[C@@H](O)[C@@H]3O)[C@H](O)[C@@H](O)[C@H]2O)[C@H](O)[C@@H](O)[C@H]1O; test: purified protein, by the assay type; settings: other: recombinant Aga-I, pH 8, Lineweaver-Burk plots
[5] = substrate: OC[C@H]1O[C@H](OC[C@H]2O[C@H](O[C@]3(CO)O[C@H](CO)[C@@H](O)[C@@H]3O)[C@H](O)[C@@H](O)[C@@H]2O)[C@H](O)[C@@H](O)[C@H]1O; test: purified protein, by the assay type; settings: other: recombinant Aga-I, pH 8, Lineweaver-Burk plots

6-O-α-D-galactopyranosyl-D-glucose [Melibiose]
Activity (calculated specific activity) [1]: 124 nmol/mg protein/minute
affinity as substrate [2]: low affinity

OC[C@H]1O[C@H](OC[C@H]2O[C@H](O[C@]3(CO)O[C@H](CO)[C@@H](O)[C@@H]3O)[C@H](O)[C@@H](O)[C@@H]2O)[C@H](O)[C@@H](O)[C@H]1O [Raffinose, O-α-D-galactopyranosyl-(1-6)-O-α-D-glucopyranosyl-(1-2)-beta-D-fructofuranoside]
Activity (calculated specific activity) [1]: 482 nmol/mg protein/minute
affinity as substrate [2]: low affinity

OC[C@H]1O[C@H](OC[C@H]2O[C@H](OC[C@H]3O[C@H](O[C@]4(CO)O[C@H](CO)[C@@H](O)[C@@H]4O)[C@H](O)[C@@H](O)[C@@H]3O)[C@H](O)[C@@H](O)[C@H]2O)[C@H](O)[C@@H](O)[C@H]1O [Stachyose, O-α-D-galactopyranosyl-(1-6)-O-α-D-galactopyranosyl-(1-6)-O-α-D-glucopyranosyl-(1-2)-beta-D-fructofuranoside]
Activity (calculated specific activity) [1]: 645 nmol/mg protein/minute

C[C@@H]1O[C@@H](Oc2ccc([N+](=O)[O-])cc2)[C@@H](O)[C@H](O)[C@@H]1O [pNP-Fuc]
activity of recombinant Aga-I with nitrophenyl substrates [1]: no activity

CC(=O)N[C@H]1[C@H](Oc2ccc([N+](=O)[O-])cc2)O[C@H](CO)[C@@H](O)[C@@H]1O [pNP-NacG]
activity of recombinant Aga-I with nitrophenyl substrates [1]: no activity

O=[N+]([O-])c1ccc(O[C@H]2O[C@H](CO)[C@@H](O)[C@H](O)[C@H]2O)cc1 [pNP-αGlu]
activity of recombinant Aga-I with nitrophenyl substrates [1]: no activity

O=[N+]([O-])c1ccc(O[C@H]2O[C@H](CO)[C@@H](O)[C@H](O)[C@@H]2O)cc1 [pNP-αMan]
activity of recombinant Aga-I with nitrophenyl substrates [1]: no activity

O=[N+]([O-])c1ccc(O[C@@H]2O[C@H](CO)[C@H](O)[C@H](O)[C@H]2O)cc1 [pNP-βGal]
activity of recombinant Aga-I with nitrophenyl substrates [1]: some activity

O=[N+]([O-])c1ccc(O[C@@H]2O[C@H](CO)[C@@H](O)[C@H](O)[C@H]2O)cc1 [pNP-βGlu]
activity of recombinant Aga-I with nitrophenyl substrates [1]: no activity

O=[N+]([O-])c1ccc(O[C@@H]2O[C@H](CO)[C@@H](O)[C@H](O)[C@@H]2O)cc1 [pNP-βMan]
activity of recombinant Aga-I with nitrophenyl substrates [1]: no activity

OC[C@H]1O[C@H](O)[C@H](O)[C@@H](O)[C@H]1O [α-D-galactose]
inhibition of the enzyme's activity by the reaction product [2]: strong inhibitor
inhibition of the enzyme's activity by the reaction product ([2]; listed as α-galactose): strongly inhibited

B1: Aga-II: Cucumis melo alkaline α-galactosidase II, SEQ ID NO: 10, encoded by SEQ ID NO: 9 (protein)
chain: MTVTPKISVNDGNLVVHGKTILTGVPDNIVLTPGSGLGLVAGAFIGATASNSKSLHVFPVGVLEGTRFLCCFRFKLWWMTQRMGTSGRDIPFETQFLLMESKGNDGEDPDNSSTIYTVFLPLLEGQFRAALQGNEKNEMEICLESGDNTVETNQGLSLVYMHAGTNPFEVITQAVKAVEKHTQTFLHREKKKLPSFLDWFGWCTWDAFYTDVTAEGVVEGLKSLSEGGAPPKFLIIDDGWQQIEAKPKDADCVVQEGAQFASRLSGIKENHKFQKNGNNYDQVPGLKVVVDDAKKQHKVKFVYAWHALAGYWGGVKPASPGMEHYDSALAYPVQSPGMLGNQPDIVVDSLAVHGIGLVHPKKVFNFYNELHSYLASCGIDGVKVDVQNIIETLGAGHGGRVTLTRSYHQALEASIARNFSDNGCIACMCHNTDSLYSAKQTAVVRASDDYYPRDPASHTIHISSVAYNSLFLGEFMQPDWDMFHSLHPTAEYHGAARAIGGCAIYVSDKPGNHNFDLLKKLVLPDGSVLRAQLPGRPTRDSLFNDPARDGTSLLKIWNMNKCSGVVGVFNCQGAGWCRITKKTRIHDESPGTLTTSVRAADVDAISQVAGADWKGDTIVYAYRSGDLIRLPKGASVPVTLKVLEYDLLHISPLKDIASNISFAPIGLLDMFNTGGAVEQVNVQVVEPIPEFDGEVASELTCSLPNDRPPTATITMKARGCRRFGLYSSQRPLKCSVDKVDVDFVYDEVTGLVTFEIPIPTEEMYRWNIEIQV
modifications: Cucumis melo
pH of maximal α-galactosidase activity [3]: 8 pH

B2: recombinant Aga-I (alkaline-α-galactosidase I) (Cucumis melo) (protein)
chain: MTVGAGITISDANLTVLGNRVLSDVHNNITLTAAPGGGVMNGAFIGVQSDQIGSRRVFPIGKLIGLRFLCAFRFKLWWMTQRMGCSGQEVPFETQFLVVETRDGSNIAGNGEEGDAVYTVFLPILEGDFRAVLQGNDNNEIEICLESGDPSVDGFEGSHLVFVGAGSDPFETITYAVKSVEKHLQTFAHRERKKMPDILNWFGWCTWDAFYTDVTSDGVKKGLESFENGGIPPKFVIIDDGWQSVAKDATSADCKADNTANFANRLTHIKENYKFQKDGKEGERIENPALGLQHIVSYMKEKHATKYVYVWHAITGYWGGVSAGVKEMEQYESKIAYPVASPGVESNEPCDALNSITKTGLGLVNPEKVFNFYNEQHSYLASAGVDGVKVDVQNILETLGAGHGGRVKLARKYHQALEASISRNFQDNGIISCMSHNTDGLYSSKRNAVIRASDDFWPRDPASHTIHIASVAYNSLFLGEFMQPDWDMFHSLHPMAEYHGAARAVGGCAIYVSDKPGQHDFNLLKKLVLPDGSILRAKLPGRPTKDCLFTDPARDGKSLLKIWNLNDLSGVVGVFNCQGAGWCKVGKKNLIHDENPDTITGVIRAKDVSYLWKIAGESWTGDAVIFSHLAGEVVYLPQDASMPITLKPREFDVFTVVPVKELVNDIKFAPIGLIKMFNSGGAVKEMNHQPGSSNVSLKVRGSGPFGAYSSSKPKRVAVDSEEVEFMYDEGGLITIDLKVPEKELYLWDIRIEL
Km [4]: 1900 µM
Km [5]: 1800 µM

B3: Aga-I: Cucumis melo alkaline-α-galactosidase I, SEQ ID NO: 6, encoded by SEQ ID NO: 5 (protein)
chain: B2 chain
modifications: Cucumis melo
pH of maximal α-galactosidase activity [3]: 8 pH
galactosidase activity at pH 9 ([3]; pH 9, data not shown): activity was still observed
pH range of highest galactosidase activity ([3]; recombinant Aga-I, data not shown): 7.5-8 pH
